Experimental findings from patent US8168667B2 (Galapagos NV, priority 2006, dated 2012) are described below.

As a reminder, the melting point is the temperature of the solid-liquid transition. The EC50 is the midpoint of the concentration-response curve.

Data set [1] deals with T1, human androgen receptor (hAR) (Homo sapiens, UniProt P10275).
T1 sequence (P10275 1-920): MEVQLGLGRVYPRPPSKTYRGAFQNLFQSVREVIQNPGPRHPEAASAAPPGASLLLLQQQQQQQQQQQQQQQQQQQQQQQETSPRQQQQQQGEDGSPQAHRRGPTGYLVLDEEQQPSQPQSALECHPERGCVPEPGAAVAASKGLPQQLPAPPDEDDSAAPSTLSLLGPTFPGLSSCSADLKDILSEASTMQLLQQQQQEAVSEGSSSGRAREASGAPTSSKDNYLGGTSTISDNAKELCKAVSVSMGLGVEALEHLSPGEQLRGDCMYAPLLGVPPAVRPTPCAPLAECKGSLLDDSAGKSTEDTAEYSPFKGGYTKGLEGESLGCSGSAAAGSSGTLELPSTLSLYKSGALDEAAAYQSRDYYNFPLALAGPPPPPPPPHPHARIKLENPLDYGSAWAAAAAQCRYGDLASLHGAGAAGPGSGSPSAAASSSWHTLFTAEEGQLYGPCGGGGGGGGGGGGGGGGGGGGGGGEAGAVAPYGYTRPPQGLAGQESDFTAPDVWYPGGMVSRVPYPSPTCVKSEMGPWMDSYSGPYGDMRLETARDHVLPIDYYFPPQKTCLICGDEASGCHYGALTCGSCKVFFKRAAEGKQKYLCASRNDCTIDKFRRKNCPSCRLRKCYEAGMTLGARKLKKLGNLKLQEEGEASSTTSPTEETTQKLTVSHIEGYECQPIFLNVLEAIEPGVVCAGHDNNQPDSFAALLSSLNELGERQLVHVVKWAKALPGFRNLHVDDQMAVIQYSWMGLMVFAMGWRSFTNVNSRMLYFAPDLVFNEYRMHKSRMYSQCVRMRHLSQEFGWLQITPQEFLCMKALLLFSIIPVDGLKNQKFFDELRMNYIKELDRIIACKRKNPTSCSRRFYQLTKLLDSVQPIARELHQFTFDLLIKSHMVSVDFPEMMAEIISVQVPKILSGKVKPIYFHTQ
The experiment in a line: Functional response test: hAR transactivation (luciferase reporter) in HALP2 cells. It counts as cell-based. The essentials: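 HALP2 cells are HeLa cells stably transfected with CMV-driven hAR and a probasin ARE-luciferase reporter. They were seeded 24 h ahead, then exposed to compounds for 20 hours at 37° C in phenol red-free DMEM with 5% desteroided serum. Luciferase luminescence was measured after lysis; for antagonist mode, compounds were tested against increasing DHT concentrations.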
Background: A reporter such as luciferase makes a cellular process visible.

For data set [2], the system named is castrated immature young rats. As to the kind of experiment: Adapted model of Hershberger's test (levator ani and ventral prostate weight). It counts as in vivo, Sprague Dawley rats. Particulars: Rattus norvegicus, po, 96 h. On the procedure:
The selective modulating activity of the androgen receptor was tested in a model of castrated immature young rats. This model, which is widely recognised for evaluating the anabolic effects of androgen compounds on the muscles and on the genitalia, has been described by Hershberger et al. 1953 Proc. Soc. Expt. Biol. Med. 83:175.
The method is based on the measurement of the well-known effects of androgens on the growth of the muscles and the accessory male sex organs in animals, and also in men. The consequences of castration appear in the form of a rapid involution and atrophy of the prostate and the seminal vesicles and of the anus-lifting muscle (levator ani). This effect may be completely compensated by an exogeneous administration of androgen, in particular of testosterone. The model is thus used to determine the capacity of the tested molecules to maintain the weight of the accessory sex and muscle organs in immature castrated rats, and therefore their androgenic efficacy.
Immature young Sprague Dawley rats (4 to 5 weeks old) weighing approximately 140-160 g (Charles River, Les Oncins, FRANCE) were distributed randomly in various groups and were kept in an environment at 22±2° C. with an alternating day/night cycle of 12 hours and ad libitum access to food and drink.
On day 0, that is, seven days before commencement of the first treatment, the rats were weighed individually then anaesthetised with an intraperitoneal dose of Ketamine/xylazine (85/15 mg/kg, approximately 2 ml/kg). Each animal was then placed on a sterile field and the abdomen and the scrotum were disinfected with Betadine and 70% alcohol. In the case of the orchidectomised control animals (ORX), the testicles were removed via an incision in the middle of the scrotum. A sterile suture was then made to ligature the supra-testicular portion of the tissue prior to surgical section of each testicle. The groups of animals to be treated by the tested compounds were operated on in an identical manner. In the case of the intact control animals (SHAM), the testicles were similarly extracted and reintroduced delicately to their original location. The site of surgical intervention was then sutured using sterile suture thread, and the site was disinfected again by application of Betadine. Each animal was then kept under a sterile pad until it awoke, before being returned to its cage. The animals were kept in an environment at 22±2° C. with an alternating day/night cycle of 12 hours and ad libitum access to food and drink. The animals were treated with the molecules to be tested from post-surgery day 7 and until day 10 preceding sacrifice (day 11).
The rats were split into groups and treated daily from day 7 to day 10 under the conditions defined below: • 1. SHAM control group: Vehicle (0.5% aqueous methyl cellulose) administered per os. • 2. ORX control group: Vehicle (0.5% aqueous methyl cellulose) administered per os. • 3. Treated ORX group: The tested compounds were administered individually per os in suspension in the vehicle described above, in a dose of 30 mg/kg.
After treatment for 4 successive days, the animals were decapitated using a guillotine. The levator ani and the ventral prostate were removed and weighed individually. For comparing inter-experimental data, the weight of each organ was standardised and expressed in milligrammes per 100 g of the weight of the animal (W). For each organ, the average of the standardised weights of the ORX control group was fixed by definition at 0% and the average of the standardised weights of the SHAM control group was fixed by definition at 100%. The efficacy of each product was expressed as a percentage and calculated using the following formula: (Wtreated−WORX)/(WSHAM−WORX)×100 A subsequent ANOVA test was used for statistical analysis to identify the differences between groups.

[3] abbreviates: read-out: anabolic protection efficacy with regard to levator ani.
The mark [4] stands for this setting: read-out: androgenic efficacy with regard to the prostate.
[5] abbreviates: antagonism, concentration which increases the EC50 of the DHT by a factor of 2, Schild regression, HALP2 cells.

Read-outs that look alike come from different tables or passages of the source.

The compound `CN1C(=O)N(c2ccc(C#N)c(C(F)(F)F)c2)C(=O)C1c1ccc(O)cc1` (centres unmarked) [Example 2, 4-[2,5-dioxo-4-(4-hydroxyphenyl)-3-methyl-imidazolidin-1-yl]-2-trifluoromethylbenzonitrile] displayed a melting point of 157.4 °C. The “KSchild (nM) potency” value in data set [1] amounted to 9.65 nM.

Consider `COc1cc(N2C(=O)N(C)C(C)(c3ccc(O)cc3)C2=O)ccc1C#N` (centres unmarked) [Example 9, 4-[3,4-dimethyl-2,5-dioxo-4-(4-hydroxyphenyl)imidazolidin-1-yl]-2-methoxybenzonitrile], for which, in data set [1], the “KSchild (nM) potency” value came to 2.1 nM. In addition, the inhibition in vivo at 30 mg/kg in data set [2] (setting [3]) lay within 50 to 140%; in data set [2] (setting [4]) it was 5 to 70%.

The compound `CN1C(=O)N(c2ccc(Cl)c(Cl)c2)C(=O)C1(C)c1ccc(O)cc1` (centres unmarked) [Example 25, 1-(3,4-dichlorophenyl)-3,4-dimethyl-4-(4-hydroxyphenyl)imidazolidine-2,5-dione] returned a melting point of 184 °C. Also, the “KSchild (nM) potency” value in data set [1] turned out to be 10.9 nM.

Consider `C#CCN1C(=S)N(c2ccc(C#N)c(C(F)(F)F)c2)C(=O)C1(C)c1ccc(O)cc1` (centres unmarked) [Example 43, 4-[4-(4-hydroxyphenyl)-4-methyl-5-oxo-3-(2-propynyl)-2-thioxoimidazolidin-1-yl]-2-trifluoromethylbenzonitrile], for which the melting point was 169 °C. In addition, in data set [1], the “KSchild (nM) potency” value turned out to be 0.49 nM.

In turn, `COc1cc(N2C(=O)N(C)[C@](C)(c3ccc(O)cc3)C2=O)ccc1C#N` [Example 156.2, (R)-4-[3,4-dimethyl-2,5-dioxo-4-(4-hydroxyphenyl)imidazolidin-1-yl]-2-methoxybenzonitrile] yielded a melting point of 100 °C. Besides, in data set [1], the “KSchild (nM) potency” value was 1.5 nM. Moreover, the inhibition in vivo at 30 mg/kg in data set [2] (setting [3]) lay in the range of 50 to 140%. Further, the inhibition in vivo at 30 mg/kg in data set [2] (setting [4]) fell in the range of 5 to 70%.

For `CN1C(=O)N(c2ccc(C#N)c(C(F)(F)F)c2)C(=O)C1(C)c1ccc(O)c(Cl)c1` (centres unmarked) [Example 173, 4-[4-(3-chloro-4-hydroxyphenyl)-3,4-dimethyl-2,5-dioxoimidazolidin-1-yl]-2-trifluoromethylbenzonitrile], the melting point stood at 161.1 °C. Moreover, the “KSchild (nM) potency” value in data set [1] came out at 3 nM.

For the compound `CN1C(=O)N(c2ccc(C#N)c(C(F)(F)F)c2)C(=O)C1(CO)c1ccc(O)cc1` (centres unmarked) [Example 176, 4-[2,5-dioxo-4-hydroxymethyl-4-(4-hydroxyphenyl)-3-methyl-imidazolidin-1-yl]-2-trifluoromethylbenzonitrile], in data set [1], the “KSchild (nM) potency” value came out at 1.34 nM. In addition, the inhibition in vivo at 30 mg/kg is 50 to 140% in data set [2] (setting [3]) and 5 to 70% in data set [2] (setting [4]).

For the compound `CN1C(=O)N(c2ccc(C#N)c(C(F)(F)F)c2)C(=O)C1(CF)c1ccc(O)cc1` (centres unmarked) [Example 177, 4-[2,5-dioxo-4-fluoromethyl-4-(4-hydroxyphenyl)-3-methylimidazolidin-1-yl]-2-trifluoromethylbenzonitrile], the “KSchild (nM) potency” value in data set [1] turned out to be 0.72 nM. Also, the inhibition in vivo at 30 mg/kg fell in the range of 50 to 140% in data set [2] (setting [3]) and 5 to 70% in data set [2] (setting [4]).

`C#CCC1(c2ccc(O)cc2)C(=O)N(c2ccc(C#N)c(C(F)(F)F)c2)C(=O)N1C` (centres unmarked) [Example 177.3, 4-[2,5-dioxo-4-(4-hydroxyphenyl)-3-methyl-4-(2-propynyl)imidazolidin-1-yl]-2-trifluoromethylbenzonitrile] yielded a melting point of 122 °C. Further, the “KSchild (nM) potency” value in data set [1] was found to be 15 nM.

In turn, `CN1C(=O)N(c2ccc(Cl)c(Cl)c2)C(=O)C1(CF)c1ccc(O)cc1` (centres unmarked) [Example 184, 1-(3,4-dichlorophenyl)-4-fluoromethyl-4-(4-hydroxyphenyl)-3-methylimidazolidine-2,5-dione] showed a melting point of 167.2 °C. In addition, the EC50 in data set [1] (agonism, HALP2 cells (HeLa, hAR + ARE-luciferase), 20 hours at 37° C.) is 4.9 nM. The “KSchild (nM) potency” value in data set [1] (setting [5]) is reported as 2.8 nM.

In turn, `CCOCN1C(=O)N(c2ccc(C#N)c(C(F)(F)F)c2)C(=O)C1(C)c1ccc(O)cc1` (centres unmarked) [Example 221, 4-[3-(ethoxymethyl)-4-(4-hydroxyphenyl)-4-methyl-2,5-dioxoimidazolidin-1-yl]-2-trifluoromethylbenzonitrile] gave a melting point of 143 °C. Also, the “KSchild (nM) potency” value in data set [1] turned out to be 5.66 nM.

Consider `COCN1C(=O)N(c2ccc(C#N)c(C(F)(F)F)c2)C(=O)C1(C)c1ccc(O)cc1` (centres unmarked) [Example 222, 4-[4-(4-hydroxyphenyl)-3-methoxymethyl-4-methyl-2,5-dioxoimidazolidin-1-yl]-2-trifluoromethylbenzonitrile], for which the inhibition in vivo at 30 mg/kg in data set [2] (setting [3]) fell in the range of 50 to 140%; in data set [2] (setting [4]), 5 to 70%.

`COCN1C(=O)N(c2ccc(C#N)c(OC)c2)C(=O)C1(C)c1ccc(O)cc1` (centres unmarked) [Example 223.1, 4-[4-(4-hydroxyphenyl)-3-methoxymethyl-4-methyl-2,5-dioxoimidazolidin-1-yl]-2-methoxybenzonitrile] registered a melting point of 141 °C. In addition, in data set [1], the “KSchild (nM) potency” value is given as 4 nM.

In turn, `CCN1C(=O)N(c2ccc(C#N)c(C(F)(F)F)c2)C(=O)C1(C)c1ccc(O)cc1` (centres unmarked) [Example 224, 4-[2,5-dioxo-3-ethyl-4-(4-hydroxyphenyl)-4-methylimidazolidin-1-yl]-2-trifluoromethylbenzonitrile] showed a melting point of 165 °C. The “KSchild (nM) potency” value in data set [1] (setting [5]) worked out at 2 nM.

`CCCN1C(=O)N(c2ccc(C#N)c(C(F)(F)F)c2)C(=O)C1(C)c1ccc(O)cc1` (centres unmarked) [Example 225, 4-[2,5-dioxo-4-(4-hydroxyphenyl)-4-methyl-3-propylimidazolidin-1-yl]-2-trifluoromethylbenzonitrile] came in with a melting point of 125 °C. Besides, in data set [1], the “KSchild (nM) potency” value is 2.83 nM.

The compound `CC1(c2ccc(O)cc2)C(=O)N(c2ccc(C#N)c(C(F)(F)F)c2)C(=O)N1CCF` (centres unmarked) [Example 226, 4-[2,5-dioxo-3-(2-fluoroethyl)-4-(4-hydroxyphenyl)-4-methylimidazolidin-1-yl]-2-trifluoromethylbenzonitrile] came in with a melting point of 157 °C. In data set [1], the “KSchild (nM) potency” value was determined as 2.45 nM.
